“Also recorded” adds a separate entry of the source. Like-named read-outs stand apart in the source and are kept apart here.
Tests used:
[1] = system: Raji B cells (Burkitt's lymphoma cells); test: Cytotoxicity, cell count, Raji (Example 4); settings: read-out: Cytotoxicity (IC50, μM) Raji
Experimental: (§7) Raji cells and MB-468 cells were purchased from American Tissue Culture (Manassas, Va.). […] Cells were harvested and counted on the third day in a Coulter Particle Counter (Beckman-Coulter Corp.: Brea, Calif.). IC50 values were calculated using GraphPad Prism 5 (GraphPad Software Inc., La Jolla, Calif.).

[2] = system: T47D; test: Cell proliferation assay T47D (Example 6); type: cell-based; settings: cells counted on the sixth day
Experimental: (§1) In-vitro assays were performed to assess the cytotoxic impact of AA analogues on breast cancer cell lines (MB-468, MB-453, and T47D), lymphoma cell lines (Raji and OCI-LY10), and glioblastoma multiforme cell line (U87). The three breast cancer cell lines represent three subtypes of breast cancer: triple-negative (MB-468), Her2-positive (MB-453), and hormone receptor positive (T47D).
(§2) The IC50 values obtained for each compound represents the concentration of the tested compound that is needed to decrease the cancer cell count by 50%. Cancer cells were seeded in triplicate at 50,000 cells per well of a 24-well plate in 0.5 ml medium. […] Cells were harvested and counted on the sixth day using a Beckman Coulter counter.

[3] = system: MB-468 (triple-negative breast cancer cells); test: Cytotoxicity, cell count, MB-468 (Example 4); settings: read-out: Cytotoxicity (IC50, μM) MB-468
Experimental: as §7

[4] = system: MB-468; test: Cell proliferation assay MB-468 (Example 6); type: cell-based; settings: cells counted on the sixth day
Experimental: as §1, §2

[5] = system: U87 cells; test: U87 orthotopic murine model for glioblastoma multiforme; type: in vivo; settings: for Median Survival (Day) GBM (U-87): control 25.5; for survival (Kaplan-Meier) vs control, U87 model / tumor growth (BLI) vs control, U87 model: all treatment groups (2.5 or 5 mg/kg i.p. daily for 4 days); for tolerability, U87 model: both dose levels (2.5 and 5 mg/kg)
Experimental: (§3) Female athymic mice (8-10 weeks old and weighing 20-25 g at the beginning of the study) were purchased from Harlan laboratories (Indianapolis, Ind.). They were housed in a temperature-controlled sterilized room (23±2° C.) with a 12-h light/dark cycle and free access to food and water throughout the study.
(§4) Murine brain tumor models were created by intracerebral injection of luciferase-transfected cancer cells in athymic mice under anesthesia using a stereotactic platform. For murine model for CNS lymphoma, 1×10^5 OCI-LY10 B lymphoma cells were used. For murine model for metastatic breast cancer of the brain (MBCB), 1×10^5 MB-468 triple-negative breast cancer cells were used. For murine model for glioblastoma multiforme (GBM), 1.75×10^5 U87 cells were used. Eight-week-old athymic mice underwent a minimum 7-day acclimation/quarantine prior to surgery. Surgery was performed in a laminar flow hood under sterile conditions. Tylenol 300 mg/kg PO was given for analgesia 48 hours before the surgery and continuing 48 hours postoperatively. Anesthesia was achieved by inhalation of 1-2% isoflurane. After the mouse became well anesthetized, it was placed in the Kopf stereotactic instrument. A small amount of BNP antibiotic cream (a mixture of Bacitracin, Neomycin and Polymyxin) was smeared on its eyes to prevent infection and corneal damage during surgery. A strip of soft fabric was placed over the mouse's body and tail to prevent excessive heat loss during surgery. The scalp area was cleaned with a 2% solution of Betadine and dried with cotton tipped applicator. A midline sagittal incision was made in the scalp. A small burr hole was drilled in the left skull with a surgical drill (Kopf) or a Dremel drill according to the coordinates (AP: 0.5 mm, LM: 2.5 mm) as determined by reference to the mouse brain atlas by Franklin and Paxinos. The dura mater was surgically exposed, and a 10 μl Hamilton syringe with a 26S-gauge beveled needle was lowered into the left cerebral hemisphere up to a depth of 3 mm and 5 μl of tumor cells were slowly infused (0.5 μl/min). The needle was left in place for 5 minutes to prevent reflux and then was slowly removed. The skin was closed with wound clips. The mice recovered from anesthesia and surgery in a warm environment and were not returned to their cages until motor activity returned. Cages were placed on top of a heating pad to minimize the loss of body heat during the recovery. The mice were monitored post-operatively at least twice a day for 5 days or until recovery was complete.
(§5) BLI was used to assess the impact of the treatments on the brain tumor growth. After intracerebral injection of cancer cells, all the mice were subjected to bioluminesence imaging (BLI) twice a week starting at day-4 post-intracerebral injection to monitor the real-time in vivo tumor growth. BLI was conducted using a Xenogen Lumina optical imaging system (Caliper Life Sciences, Hopkinton, Mass.). Mice were anesthetized with isofluorane before intraperitoneal injections of luciferin at a dose of 150 mg/kg, providing a saturating substrate concentration for luciferase enzyme. Peak luminescent signals were recorded 10 minutes after luciferin injection. Regions of interest encompassing the intracranial area of signal were defined using Living Image software (Xenogen, Alameda, Calif.), and the total photons/s/steradian/cm2 was recorded.
(§6) Five mice each were assigned to one of seven treatment groups or one vehicle control group for all three brain tumor models. Mice in experimental groups received either 2.5 mg/kg or 5 mg/kg of AA, CEAA, or DCEAA by intraperitoneal route daily for 4 days. For CAA, only 2.5 mg/Kg by intraperitoneal route daily for 4 days was used. The control group received DMSO by intraperitoneal route for 4 days. The end point for the survival analysis was the development of limb paralysis. Animals were checked at least twice per day. Animals that reached the end point were sacrificed by CO2 anesthesia. […]

[6] = system: OCI-LY10 B lymphoma cells; test: OCI-LY10 orthotopic murine CNS lymphoma model; type: in vivo; settings: for Median Survival (Day) CNS Lymphoma (OCI-LY10): control 35; for survival (Kaplan-Meier) vs control, OCI-LY10 model / tumor growth (BLI) vs control, OCI-LY10 model: all treatment groups (2.5 or 5 mg/kg i.p. daily for 4 days); for tolerability, OCI-LY10 model: both dose levels (2.5 and 5 mg/kg)
Experimental: as §3, §4, §5, §6

[7] = system: OCI-LY10; test: Cell proliferation assay OCI-LY10 (Example 6); type: cell-based; settings: cells counted on the sixth day
Experimental: as §1, §2

[8] = system: Raji; test: Cell proliferation assay Raji (Example 6); type: cell-based; settings: cells counted on the sixth day
Experimental: as §1, §2

[9] = system: MB-453; test: Cell proliferation assay MB-453 (Example 6); type: cell-based; settings: cells counted on the sixth day
Experimental: as §1, §2

[10] = system: MB-468 triple-negative breast cancer cells; test: MB-468 orthotopic murine model for metastatic breast cancer of the brain; type: in vivo, athymic mice; settings: for Median Survival (Day) Breast Cancer (MB-468): control 52; for survival (Kaplan-Meier) vs control, MB-468 model / tumor growth (BLI) vs control, MB-468 model: all treatment groups (2.5 or 5 mg/kg i.p. daily for 4 days); for tolerability, MB-468 model: both dose levels (2.5 and 5 mg/kg)
Experimental: as §3, §4, §5, §6

[11] = system: DU145 prostate cancer cells; test: Cytotoxicity, MTT method, DU145; settings: read-out: Cytotoxicity (IC50, μM) DU145
Experimental: The cell suspension in the culture medium was plated into each well of 96-well plates (10,000 cells/well/100 μL). After 24 h, testing compounds were added, and then the plates were incubated for an additional 24 h in a humidified atmosphere of 5% CO2 at 37° C. […] The IC50 value was determined by linear interpolation from the growth inhibition curve.

[12] = system: Raji lymphoma cells; test: Matrigel invasion assay; type: cell-based; settings: 1 hour pre-treatment with log dilutions
Experimental: Invasion assays were performed in triplicate using BD Biocoat Matrigel Invasion Chamber (BD Biosciences: Sparks, Md.) according to manufacturer's instructions (8-μm pore-size). Five percent serum was used as a chemoattractant in the bottom chamber. […] Viability of Raji cells was ascertained by Trypan blue test after the treatment with AA. Statistical analysis was performed using two-tailed Student's T-Test.

[13] = 2.5 mg/kg intraperitoneal daily for 4 days
[14] = 5 mg/kg intraperitoneal daily for 4 days

Structure (SMILES)	IC50 ([1]; Homo sapiens, Raji) [µM]	IC50 ([2]; Homo sapiens, T47D) [nM]	IC50 [3] [µM]	IC50 [4] [nM]	Median Survival (Day) GBM (U-87) [5, 13] [days]	Median Survival (Day) GBM (U-87) [5, 14] [days]	survival (Kaplan-Meier) vs control, U87 model [5]	tumor growth (BLI) vs control, U87 model [5]	Median Survival (Day) CNS Lymphoma (OCI-LY10) [6, 13] [days]	Median Survival (Day) CNS Lymphoma (OCI-LY10) [6, 14] [days]	survival (Kaplan-Meier) vs control, OCI-LY10 model [6]	tumor growth (BLI) vs control, OCI-LY10 model [6]	IC50 ([7]; Homo sapiens, OCI-Ly10) [nM]	IC50 ([8]; Homo sapiens, Raji) [nM]	IC50 [9] [nM]	Median Survival (Day) Breast Cancer (MB-468) [10, 13] [days]	Median Survival (Day) Breast Cancer (MB-468) [10, 14] [days]	survival (Kaplan-Meier) vs control, MB-468 model [10]	tumor growth (BLI) vs control, MB-468 model [10]	IC50 ([11]; Homo sapiens, DU-145, 24 h) [µM]	other results
CCN1C(=O)N[C@H]2[C@@H]3NC(=O)c4cc(Cl)c(Cl)n4[C@@H]3C[C@]21O [DCEAA, dichloroethylagelastatin A]	0.62	101	0.44	444	30	34	significantly prolonged survival; also recorded: prolongation of survival	significantly decreased tumor growth; also recorded: significantly slower	60	69	significantly prolonged survival; also recorded: prolongation of survival	significantly decreased tumor growth; also recorded: significantly slower	429	619	104	61	75	significantly prolonged survival; also recorded: prolongation of survival	significantly decreased tumor growth; also recorded: significantly slower	1.4	tolerability, U87 model [5]: well tolerated; tolerability, OCI-LY10 model [6]: well tolerated; tolerability, MB-468 model [10]: well tolerated
CN1C(=O)N[C@H]2[C@@H]3NC(=O)c4ccc(Cl)n4[C@@H]3C[C@]21O [CAA, chloroagelastatin A]	0.18	29.8	0.08	81.1	31	–	significantly prolonged survival; also recorded: prolongation of survival	significantly decreased tumor growth; also recorded: significantly slower	49	–	significantly prolonged survival; also recorded: prolongation of survival	significantly decreased tumor growth; also recorded: significantly slower	102	181	91.9	75	–	significantly prolonged survival	significantly decreased tumor growth	1.2	weight loss, U87 model ([5]; 2.5 mg/kg): Some weight loss; weight loss, OCI-LY10 model ([6]; 2.5 mg/kg): Some weight loss; weight loss, MB-468 model ([10]; 2.5 mg/kg): Some weight loss
CN1C(=O)N[C@H]2[C@@H]3NC(=O)c4ccc(Br)n4[C@@H]3C[C@]21O [AA, agelastatin A, reference compound]	–	–	–	2800	28	30	significantly prolonged survival; also recorded: prolongation of survival	significantly decreased tumor growth; also recorded: significantly slower	48.5	46	significantly prolonged survival; also recorded: prolongation of survival	significantly decreased tumor growth; also recorded: significantly slower	–	–	644	57	60.5	significantly prolonged survival; also recorded: prolongation of survival	significantly decreased tumor growth; also recorded: significantly slower	–	IC50 ([1]; cells counted on the third day): 0.14 µM; IC50 [2]: 55.1 nM; IC50 ([3]; cells counted on the third day): 2.8 µM; weight loss, U87 model ([5]; 5 mg/kg dose level): Some weight loss; Raji lymphoma cell invasion (Matrigel) [12]: significantly decreased invasiveness; also recorded: blocks Raji lymphoma cell invasion; weight loss, OCI-LY10 model ([6]; 5 mg/kg dose level): Some weight loss; IC50 [7]: 162 nM; IC50 [8]: 137 nM; weight loss, MB-468 model ([10]; 5 mg/kg dose level): Some weight loss; IC50 ([11]; MTT, 24 h incubation): 2.3 µM
CCN1C(=O)N[C@H]2[C@@H]3NC(=O)c4ccc(Cl)n4[C@@H]3C[C@]21O [CEAA, chloroethylagelastatin A]	0.3	20.7	0.28	277	29	31	significantly prolonged survival; also recorded: prolongation of survival	significantly decreased tumor growth; also recorded: significantly slower	57	65	significantly prolonged survival; also recorded: prolongation of survival	significantly decreased tumor growth; also recorded: significantly slower	119	296	141	56	64	significantly prolonged survival; also recorded: prolongation of survival	significantly decreased tumor growth; also recorded: significantly slower	2.6	tolerability, U87 model [5]: well tolerated; tolerability, OCI-LY10 model [6]: well tolerated; tolerability, MB-468 model [10]: well tolerated
